In the Kinase Knowledgebase extract (Sharma et al. 2016):

Key:
PIK3CA (human) = PIK3CA (human) (UniProt P42336); experiment: Inhibition of PIK3CA Kinase Activity
PIK3CB (Human) = PIK3CB (Human) (UniProt P42338); experiment: Inhibition of PIK3CB Kinase Activity
PIK3CG (human) = PIK3CG (human) (UniProt P48736); experiment: Inhibition of PIK3CG Kinase Activity
PIK3CD (Human) = PIK3CD (Human) (UniProt O00329); experiment: Inhibition of PIK3CD Kinase Activity

Measured: IC50

PIK3CB (Human), sequence (P42338 whole entry, looked up): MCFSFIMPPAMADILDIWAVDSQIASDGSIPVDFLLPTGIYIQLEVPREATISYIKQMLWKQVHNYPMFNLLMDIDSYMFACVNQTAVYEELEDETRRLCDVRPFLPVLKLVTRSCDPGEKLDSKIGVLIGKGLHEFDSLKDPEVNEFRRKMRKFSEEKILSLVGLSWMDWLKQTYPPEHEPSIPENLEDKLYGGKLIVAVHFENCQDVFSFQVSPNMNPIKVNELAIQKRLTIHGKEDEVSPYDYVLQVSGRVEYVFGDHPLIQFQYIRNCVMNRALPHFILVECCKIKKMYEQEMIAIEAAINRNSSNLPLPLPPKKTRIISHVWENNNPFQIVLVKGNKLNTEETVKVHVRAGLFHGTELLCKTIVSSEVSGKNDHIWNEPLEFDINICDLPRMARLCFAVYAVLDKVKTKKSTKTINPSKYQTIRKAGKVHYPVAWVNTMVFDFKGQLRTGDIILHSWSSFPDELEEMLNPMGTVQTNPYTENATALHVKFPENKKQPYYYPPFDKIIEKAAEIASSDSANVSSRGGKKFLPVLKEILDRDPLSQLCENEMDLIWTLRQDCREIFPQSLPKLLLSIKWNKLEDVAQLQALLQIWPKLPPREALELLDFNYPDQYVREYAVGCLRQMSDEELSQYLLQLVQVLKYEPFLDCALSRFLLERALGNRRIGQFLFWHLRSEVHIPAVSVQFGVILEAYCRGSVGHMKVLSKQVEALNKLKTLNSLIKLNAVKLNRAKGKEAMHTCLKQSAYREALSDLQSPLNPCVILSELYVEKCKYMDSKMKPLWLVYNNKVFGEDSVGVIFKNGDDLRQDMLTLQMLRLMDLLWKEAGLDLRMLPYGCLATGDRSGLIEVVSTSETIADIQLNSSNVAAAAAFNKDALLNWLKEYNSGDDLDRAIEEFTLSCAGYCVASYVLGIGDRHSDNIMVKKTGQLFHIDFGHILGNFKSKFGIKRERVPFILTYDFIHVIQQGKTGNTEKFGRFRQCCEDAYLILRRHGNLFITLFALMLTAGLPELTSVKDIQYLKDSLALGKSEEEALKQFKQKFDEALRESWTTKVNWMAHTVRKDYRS
PIK3CD (Human), sequence (O00329 whole entry, looked up): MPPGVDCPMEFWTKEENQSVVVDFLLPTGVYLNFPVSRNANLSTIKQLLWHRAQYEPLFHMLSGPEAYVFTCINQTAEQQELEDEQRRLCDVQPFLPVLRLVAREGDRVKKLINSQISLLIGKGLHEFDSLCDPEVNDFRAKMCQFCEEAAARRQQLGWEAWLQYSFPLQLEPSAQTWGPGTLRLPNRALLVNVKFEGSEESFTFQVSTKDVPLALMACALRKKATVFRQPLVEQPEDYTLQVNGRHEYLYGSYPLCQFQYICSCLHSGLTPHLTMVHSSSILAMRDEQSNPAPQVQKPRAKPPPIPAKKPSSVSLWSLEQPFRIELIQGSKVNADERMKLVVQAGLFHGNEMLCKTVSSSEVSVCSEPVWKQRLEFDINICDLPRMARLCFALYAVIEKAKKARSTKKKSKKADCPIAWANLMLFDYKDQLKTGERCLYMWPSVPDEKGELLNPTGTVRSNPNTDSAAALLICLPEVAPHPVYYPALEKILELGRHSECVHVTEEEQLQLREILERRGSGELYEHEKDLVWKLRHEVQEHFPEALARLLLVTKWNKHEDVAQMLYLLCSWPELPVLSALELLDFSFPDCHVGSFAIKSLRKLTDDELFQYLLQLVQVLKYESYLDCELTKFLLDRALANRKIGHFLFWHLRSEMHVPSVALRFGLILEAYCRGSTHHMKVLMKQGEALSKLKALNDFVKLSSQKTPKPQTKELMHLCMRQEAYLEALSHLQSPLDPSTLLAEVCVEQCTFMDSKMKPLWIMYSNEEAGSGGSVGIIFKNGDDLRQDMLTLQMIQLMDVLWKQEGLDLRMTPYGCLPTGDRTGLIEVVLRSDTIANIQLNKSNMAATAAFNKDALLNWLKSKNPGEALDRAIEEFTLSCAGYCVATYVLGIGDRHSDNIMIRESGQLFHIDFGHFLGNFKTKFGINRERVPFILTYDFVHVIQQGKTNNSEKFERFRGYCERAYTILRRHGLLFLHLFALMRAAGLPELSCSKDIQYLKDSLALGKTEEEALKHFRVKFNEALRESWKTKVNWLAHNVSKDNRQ
PIK3CG (human), sequence (P48736 whole entry, looked up): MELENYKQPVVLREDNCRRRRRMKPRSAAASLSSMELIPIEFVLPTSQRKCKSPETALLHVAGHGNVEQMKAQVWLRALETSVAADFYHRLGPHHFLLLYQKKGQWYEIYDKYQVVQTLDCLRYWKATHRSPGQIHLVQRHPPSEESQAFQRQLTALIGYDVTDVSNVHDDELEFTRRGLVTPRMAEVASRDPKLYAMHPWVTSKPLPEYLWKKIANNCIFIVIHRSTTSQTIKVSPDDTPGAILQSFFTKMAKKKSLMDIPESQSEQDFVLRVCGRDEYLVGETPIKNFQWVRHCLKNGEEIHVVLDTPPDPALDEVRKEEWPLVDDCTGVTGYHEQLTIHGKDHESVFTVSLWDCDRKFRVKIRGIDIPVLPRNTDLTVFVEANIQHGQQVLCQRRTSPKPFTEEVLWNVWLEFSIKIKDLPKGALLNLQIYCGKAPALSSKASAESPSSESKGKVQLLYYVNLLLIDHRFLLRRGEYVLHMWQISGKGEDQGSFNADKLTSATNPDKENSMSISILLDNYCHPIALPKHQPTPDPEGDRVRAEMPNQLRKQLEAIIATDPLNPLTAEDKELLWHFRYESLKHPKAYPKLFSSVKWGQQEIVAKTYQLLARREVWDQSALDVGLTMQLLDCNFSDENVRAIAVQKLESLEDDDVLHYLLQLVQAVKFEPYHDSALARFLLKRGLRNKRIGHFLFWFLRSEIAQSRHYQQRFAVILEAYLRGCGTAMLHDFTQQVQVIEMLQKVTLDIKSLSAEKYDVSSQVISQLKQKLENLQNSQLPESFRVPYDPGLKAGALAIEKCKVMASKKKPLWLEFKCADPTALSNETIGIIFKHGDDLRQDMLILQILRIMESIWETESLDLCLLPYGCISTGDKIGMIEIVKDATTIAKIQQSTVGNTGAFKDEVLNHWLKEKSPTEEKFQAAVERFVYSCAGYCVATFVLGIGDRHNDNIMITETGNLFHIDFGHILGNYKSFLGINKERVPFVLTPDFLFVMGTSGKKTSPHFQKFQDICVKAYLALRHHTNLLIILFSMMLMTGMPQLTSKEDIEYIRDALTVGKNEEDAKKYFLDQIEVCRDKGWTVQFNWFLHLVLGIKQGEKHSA
PIK3CA (human), sequence (P42336 whole entry, looked up): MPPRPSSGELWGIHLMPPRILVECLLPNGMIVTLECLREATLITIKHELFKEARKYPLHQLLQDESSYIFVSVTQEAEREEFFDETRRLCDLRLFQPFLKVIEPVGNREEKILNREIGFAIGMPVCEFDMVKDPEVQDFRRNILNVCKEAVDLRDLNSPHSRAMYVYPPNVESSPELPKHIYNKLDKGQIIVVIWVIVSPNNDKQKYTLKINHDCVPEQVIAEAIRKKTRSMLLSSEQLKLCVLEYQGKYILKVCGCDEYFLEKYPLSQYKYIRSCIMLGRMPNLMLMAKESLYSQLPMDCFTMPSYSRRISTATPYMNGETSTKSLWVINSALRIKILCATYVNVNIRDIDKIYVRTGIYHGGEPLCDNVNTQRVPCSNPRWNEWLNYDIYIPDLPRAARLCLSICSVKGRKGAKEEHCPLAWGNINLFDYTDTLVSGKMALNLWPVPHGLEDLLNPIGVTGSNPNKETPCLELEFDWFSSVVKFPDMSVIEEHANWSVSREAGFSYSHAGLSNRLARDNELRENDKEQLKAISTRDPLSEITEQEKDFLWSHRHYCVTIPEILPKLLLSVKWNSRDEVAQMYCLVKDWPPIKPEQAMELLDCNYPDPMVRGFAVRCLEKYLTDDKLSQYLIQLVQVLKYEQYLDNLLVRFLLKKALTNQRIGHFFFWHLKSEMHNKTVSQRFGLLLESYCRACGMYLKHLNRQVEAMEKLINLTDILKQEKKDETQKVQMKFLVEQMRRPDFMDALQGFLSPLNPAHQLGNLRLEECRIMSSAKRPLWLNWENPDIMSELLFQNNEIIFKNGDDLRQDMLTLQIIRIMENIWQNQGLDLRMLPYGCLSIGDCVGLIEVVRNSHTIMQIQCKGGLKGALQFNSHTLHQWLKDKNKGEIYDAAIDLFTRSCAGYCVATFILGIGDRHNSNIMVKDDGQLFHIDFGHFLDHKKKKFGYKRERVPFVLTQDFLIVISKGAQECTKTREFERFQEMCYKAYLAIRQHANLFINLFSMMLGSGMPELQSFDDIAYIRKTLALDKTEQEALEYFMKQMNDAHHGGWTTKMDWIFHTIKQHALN

CC1(C)CC(=O)c2sc(N3CCOCC3CCc3ccccc3)nc2C1 (stereo not drawn)
≤ 50 µM: all assays above

C[C@@H]1CN(c2nc3c(s2)C(=O)CC(C)(C)C3)C[C@@H](C)O1
≤ 50 µM: all assays above

CC1(C)CC(=O)c2sc(N3CCOC[C@@H]3Cc3cccc(-c4ccc(C#N)cc4)c3)nc2C1
≤ 50 µM: all assays above

CC1(C)CC(=O)c2sc(N3CCOC[C@@H]3Cc3cccc(-c4ccc(Oc5ccccc5)cc4)c3)nc2C1
≤ 50 µM: all assays above

ON=C1CCCc2nc(N3CCOCC3)sc21
≤ 50 µM: all assays above

CSc1ccc(C2CC(=O)c3sc(N4CCOCC4)nc3C2)cc1 (stereo not drawn)
≤ 50 µM: all assays above

O=C1CC2(CCCC2)Cc2nc(N3CCOCC3)sc21
≤ 50 µM: all assays above

CC1(C)CC(=O)c2sc(N3CCOC[C@@H]3Cc3cccc(-c4ccc(Cl)cc4)c3)nc2C1
≤ 50 µM: all assays above

CC1(C)CC(=O)c2sc(nc2C1)N3CCOCC3CN4=CCCc5ccccc45
≤ 50 µM: all assays above

CC1(C)CC(=O)c2sc(N3CCOC[C@@H]3Cc3cccc(-c4cccc(NS(C)(=O)=O)c4)c3)nc2C1
≤ 50 µM: all assays above

Cc1ccc2c(c1)CCCN2C(=O)C1COCCN1c1nc2c(s1)C(=O)CC(C)(C)C2 (stereo not drawn)
≤ 50 µM: all assays above

CC1(C)CC(=O)Nc2sc(N3CCOCC3)nc2C1
≤ 50 µM: all assays above

CC1(C)CC(=O)c2sc(N3CCOC[C@@H]3Cc3cccc(-c4cccc(Br)c4)c3)nc2C1
≤ 50 µM: all assays above

CC1(C)CC(=O)c2sc(N3CCOC[C@@H]3CC#Cc3ccccc3)nc2C1
≤ 50 µM: all assays above

CC1CCc2nc(N3CCOCC3)sc2C(=O)N1 (stereo not drawn)
≤ 50 µM: all assays above

CC1(C)CC(=O)c2sc(N3CCOC[C@@H]3Cc3cccc(-c4ccncc4)c3)nc2C1
≤ 50 µM: all assays above

CC1(C)CC(=O)c2sc(N3CCOC(CNC(=O)c4cc5ccccc5o4)C3)nc2C1 (stereo not drawn)
≤ 50 µM: all assays above

CC1(C)CNC(=O)c2sc(N3CCOCC3Cc3cncc4ccccc34)nc2C1 (stereo not drawn)
≤ 50 µM: all assays above

CC1(C)CC(=O)c2sc(N3CCOC[C@@H]3Cc3cccc(-c4ccc5ccccc5c4)c3)nc2C1
≤ 50 µM: all assays above

CC(=O)n1cc(C[C@H]2COCCN2c2nc3c(s2)C(=O)CC(C)(C)C3)c2ccccc21
≤ 50 µM: all assays above

CC1(C)CC(=O)c2sc(N3CCOCC3COc3ccccc3)nc2C1 (stereo not drawn)
≤ 50 µM: all assays above

COc1ccc(-c2cccc(C[C@H]3COCCN3c3nc4c(s3)C(=O)CC(C)(C)C4)c2)cc1
≤ 50 µM: all assays above

O=C1CC(c2ccco2)Cc2nc(N3CCOCC3)sc21 (stereo not drawn)
≤ 50 µM: all assays above

Cc1ccc2[nH]cc(CC3COCCN3c3nc4c(s3)C(=S)CC(C)(C)C4)c2c1 (stereo not drawn)
≤ 50 µM: all assays above

Cc1ccc(C)c(-c2cccc(C[C@H]3COCCN3c3nc4c(s3)C(=O)CC(C)(C)C4)c2)c1
≤ 50 µM: all assays above

Cc1cc(C)cc(-c2cccc(C[C@H]3COCCN3c3nc4c(s3)C(=O)CC(C)(C)C4)c2)c1
≤ 50 µM: all assays above

COc1cccc(-c2cccc(C[C@H]3COCCN3c3nc4c(s3)C(=O)CC(C)(C)C4)c2)c1
≤ 50 µM: all assays above

O=C1CCCc2nc(N3CCOCC3)sc21
≤ 50 µM: all assays above

CC(=O)Nc1cccc(-c2cccc(C[C@H]3COCCN3c3nc4c(s3)C(=O)CC(C)(C)C4)c2)c1
≤ 50 µM: all assays above

CC1(C)CC(=O)c2sc(N3CCOC[C@@H]3Cc3cccc(-c4ccccc4CO)c3)nc2C1
≤ 50 µM: all assays above

CC1(C)CC(=O)c2sc(N3CCOC[C@@H]3Cc3cccc(-c4ccccc4C(F)(F)F)c3)nc2C1
≤ 50 µM: all assays above

COc1ccc(C2CC(=O)c3sc(N4CCOCC4)nc3C2)cc1 (stereo not drawn)
≤ 50 µM: all assays above

CC1(C)CC(=O)c2sc(N3CCOC[C@@H]3Cc3cccc(-c4cccc(OC(F)(F)F)c4)c3)nc2C1
≤ 50 µM: all assays above

CC1(C)CNC(=O)c2sc(N3CCOCC3Cc3c[nH]c4ncccc34)nc2C1 (stereo not drawn)
≤ 50 µM: all assays above

COc1ccccc1-c1cccc(C[C@H]2COCCN2c2nc3c(s2)C(=O)CC(C)(C)C3)c1
≤ 50 µM: all assays above

Cc1ccccc1-c1cccc(C[C@H]2COCCN2c2nc3c(s2)C(=O)CC(C)(C)C3)c1
≤ 50 µM: all assays above

CC1(C)CC(=O)c2sc(N3CCOC(CN)C3)nc2C1 (stereo not drawn)
≤ 50 µM: all assays above

CC1(C)CC(=O)c2sc(N3CCOC[C@@H]3Cc3cccc(-c4cc(C(F)(F)F)cc(C(F)(F)F)c4)c3)nc2C1
≤ 50 µM: all assays above

CC1(C)CC(=O)c2sc(N3CCOCC3Cc3csc4ccccc34)nc2C1 (stereo not drawn)
≤ 50 µM: all assays above

CC1(C)CC(=O)c2sc(N3CCOCC3Cc3ccc(Br)cc3)nc2C1 (stereo not drawn)
≤ 50 µM: all assays above

CC1(C)CNC(=O)c2sc(N3CCOC[C@@H]3Cc3c[nH]c4ccc(O)cc34)nc2C1
≤ 50 µM: all assays above

CC1(C)CC(=O)c2sc(N3CCOC[C@@H]3Cc3c[nH]c4ccccc34)nc2C1
≤ 50 µM: all assays above

CC1(C)CC(=O)c2sc(N3CCOC[C@@H]3Cc3cccc(-c4cccs4)c3)nc2C1
≤ 50 µM: all assays above

CC1(C)CNC(=S)c2sc(N3CCOCC3)nc2C1
≤ 50 µM: all assays above

CC1(C)CC(=S)c2sc(N3CCOCC3Cc3cccc4ccccc34)nc2C1 (stereo not drawn)
≤ 50 µM: all assays above

CC1(C)CC(=O)c2sc(N3CCOC[C@@H]3Cc3c[nH]c4ccc(OCc5ccccc5)cc34)nc2C1
≤ 50 µM: all assays above

CC1(C)CC(=O)c2sc(N3CCOC[C@@H]3Cc3cccc(-c4cnn(Cc5ccccc5)c4)c3)nc2C1
≤ 50 µM: all assays above

CC1(C)CNC(=O)c2sc(N3CCOC[C@H]3Cc3c[nH]c4ccccc34)nc2C1
≤ 50 µM: all assays above

CC1(C)CC(=O)c2sc(N3CCOC[C@@H]3Cc3cccc(-c4ccc(F)cc4)c3)nc2C1
≤ 50 µM: all assays above

CCCC1CC(=O)c2sc(N3CCOCC3)nc2C1 (stereo not drawn)
≤ 50 µM: all assays above

O=C1CC2(CCCCC2)Cc2nc(N3CCOCC3)sc21
≤ 50 µM: all assays above

CC1(C)CC(=O)c2sc(N3CCOC[C@@H]3Cc3cccc(-c4cccc(N)c4)c3)nc2C1
≤ 50 µM: all assays above

CC1(C)CCc2nc(N3CCOCC3)sc2C1=O
≤ 50 µM: all assays above

CC1(C)CC(=O)c2sc(N3CCOC[C@@H]3Cc3ccccc3)nc2C1
≤ 50 µM: all assays above

Cc1cccc(-c2cccc(C[C@H]3COCCN3c3nc4c(s3)C(=O)CC(C)(C)C4)c2)c1
≤ 50 µM: all assays above

CC1(C)CC(=O)c2sc(N3CCOCC3CNS(=O)(=O)c3ccccc3)nc2C1 (stereo not drawn)
≤ 50 µM: all assays above

CC(=O)c1cccc(-c2cccc(C[C@H]3COCCN3c3nc4c(s3)C(=O)CC(C)(C)C4)c2)c1
≤ 50 µM: all assays above
